{
  "source": "paper doi:10.64898/2025.12.31.697154v2",
  "about": "“Two phytohormones synergistically induce parasitic weeds seed germination via KAI2d receptors” (biorxiv, 2026)",
  "key": {"[1]": {"test_system": "T1, OmKAI2d3–OmSMAX1D1M", "T1 construct": "gene KAI2d3; KAI2d3 plus SMAX1 D1M domain only; ligand-induced complex in TR-FRET; borders and tags not given", "experiment": "TR-FRET, ligand-induced KAI2d–SMAX1 D1M interaction", "type": "biochemical, Orobanche minor", "conditions": "without rac-GR24; 300 min"}, "[2]": {"target": "T2, OmKAI2d3", "T2 construct": "gene KAI2d3; soluble recombinant protein", "experiment": "isothermal titration calorimetry", "type": "binding, Orobanche minor", "conditions": "suggested allosteric site"}, "[3]": {"test_system": "T3, OmKAI2d9–OmSMAX1D1M", "T3 construct": "gene KAI2d9; KAI2d9 plus SMAX1 D1M domain only; ligand-induced complex in TR-FRET; borders and tags not given", "experiment": "TR-FRET, ligand-induced KAI2d–SMAX1 D1M interaction", "type": "biochemical, Orobanche minor", "conditions": "without rac-GR24; 300 min"}, "[4]": {"test_system": "T4, OmKAI2d10–OmSMAX1D1M", "T4 construct": "gene KAI2d10; KAI2d10 plus SMAX1 D1M domain only; ligand-induced complex in TR-FRET; borders and tags not given", "experiment": "TR-FRET, ligand-induced KAI2d–SMAX1 D1M interaction", "type": "biochemical, Orobanche minor", "conditions": "without rac-GR24; 300 min"}},
  "data": [
    {"smiles": "CC/C=C\\C[C@@H]1C(=O)C=C[C@@H]1CCCCCCCC(=O)O", "note": "[cis-OPDA]", "values": [
      {"measurement": "EC50", "setting": "[1]", "value": 217, "unit": "µM"},
      {"measurement": "Kd", "setting": "[2]", "value": 19.8, "unit": "µM"},
      {"measurement": "EC50", "setting": "[3]", "value": 197, "unit": "µM"},
      {"measurement": "EC50", "setting": "[4]", "value": 104, "unit": "µM"}
    ]}
  ]
}
